“Also recorded” adds a separate entry of the source. Where two headings read alike, the source gives them in different places.
Assays:
[1] = test system: LNCaP cells; test: Sulforhodamine B assay, LNCaP; format: cell-based; conditions: Homo sapiens, mean ± standard deviation
Experimental: (§1) c) Sulforhodamine B Assay
(§2) The sulforhodamine B assay is used to measure drug-induced cytotoxicity and cell proliferation for large-scale drug-screening applications. Its principle is based on the ability of the protein dye sulforhodamine B to bind electrostatically on pH dependent protein basic amino acid residues of trichloroacetic acid-fixed cells. The aim is to evaluate samples showing selective growth inhibition or cell killing of particular tumor cell lines.
(§3) The SRB assay is performed by treating cells using a 10 point dose-response curve. The cells are fixed with trichloroacetic acid solution and stained with sulforhodamine B dye. The stained cells are then solubilized with 10 mM Tris buffer and read for absorbance at 565 nm.
(§4) Percentage growth is calculated at each of the drug concentration levels using the absorbance raw data.
(§5) Percentage growth inhibition is calculated as: [(Ti−Tz)/(C−Tz)]×100 for concentrations for which Ti≥Tz. [(Ti−Tz)/(Tz)]×100 for concentrations for which Ti<Tz.
(§6) Ti=Absorbance of wells at a given drug concentration level.
(§7) Tz=Absorbance time zero wells
(§8) C=Absorbance of untreated wells (media and cells only)
(§9) After growth inhibition values have been calculated, the data is plotted on Graphpad Prism software. Data is entered and plotted on a sigmoidal dose-response curve using non-linear regression.

[2] = test system: JMAR cell line; test: Promega CellTiter-Glo (CTG) luminescent assay, JMAR; format: cell-based; conditions: 72 hr, mean ± standard deviation
Experimental: (§10) b) Promega CellTiter-Glo (CTG) Luminescent Assay
(§11) Antiproliferative activities against MDA-MB-468LN, MDA1986 and JMAR cell lines were performed with 384-well white plates with the Promega CellTiter-Glo (CTG) luminescent assay with 72 hr compound treatment. Data analysis was performed using GraphPad Prism. Selected data were further checked with MTS/PMS cell viability assay with 96-well plates, which correlated well with Promega CellTiter-Glo luminescent assay.

[3] = test system: MDA1986 cell line; test: Promega CellTiter-Glo (CTG) luminescent assay, MDA1986; format: cell-based; conditions: 72 hr, mean ± standard deviation, read-out: IC50 MDA1986
Experimental: as §10, §11

[4] = test system: MCF-7 cells; test: MTS/PMS cell viability assay, MCF-7; format: cell-based; conditions: Homo sapiens, MCF7
Experimental: (§12) a) MTS/PMS Cell Viability Assay (SKBr3 and MCF-7 Cells)
(§13) Cells were maintained in a 1:1 mixture of Advanced DMEM/F12 (Gibco) supplemented with non-essential amino acids, L-glutamine (2 mM), streptomycin (500 μg/mL), penicillin (100 units/mL), and 10% FBS. Cells were grown to confluence in a humidified atmosphere (37° C., 5% CO2), seeded (2000/well, 100 μL) in 96-well plates, and allowed to attach overnight. Compound at varying concentrations in DMSO (1% DMSO final concentration) was added, and cells were returned to the incubator for 72 hr. At 72 hr, the number of viable cells was determined using an MTS/PMS cell proliferation kit (Promega) per the manufacturer's instructions. Cells incubated in 1% DMSO were used at 100% proliferation, and values were adjusted accordingly. IC50 values were calculated from separate experiments performed in triplicate using GraphPad Prism.

[5] = test system: SKBr3, MDA-MB-468LN, MCF-7, MDA1986, JMAR, PC3-MM2 and LNCaP cell lines; test: Antiproliferative activity against the panel of cancer cell lines; format: cell-based; conditions: for activity against all cell lines tested: panel of seven cancer cell lines
Experimental: as §12
as §13, with “Prism. […]” for “Prism.”
as §10
as §11, with “assay. […]” for “assay.”
as §1, §2, §3

[6] = test system: PC3-MM2 cells; test: Sulforhodamine B assay, PC3-MM2; format: cell-based; conditions: Homo sapiens, PC3MM2, mean ± standard deviation
Experimental: as §1, §2, §3, §4, §5, §6, §7, §8, §9

[7] = test system: MDA-MB-468LN cell line; test: Promega CellTiter-Glo (CTG) luminescent assay, MDA-MB-468LN; format: cell-based; conditions: Homo sapiens, 72 hr, mean ± standard deviation
Experimental: as §10, §11

[8] = test system: SKBr3 cells; test: MTS/PMS cell viability assay, SKBr3; format: cell-based; conditions: Homo sapiens, SK-BR-3
Experimental: as §12, §13

[9] = test system: Hsp90 client proteins Her2, Akt, Raf-1 and CDK6; test: Western blot analyses of Hsp90 client protein degradation in MCF-7 cell lysates; format: cell-based, human; conditions: for client proteins Her2, Akt, Raf-1 and CDK6 (Western blot, concentration series) / Hsp90 client proteins Her2, Akt and Raf-1 (Western blot): 24 h; for client proteins Her2, Akt, Raf-1 and CDK6 (Western blot, concentration series): increasing concentrations; for Hsp90 client proteins Her2, Akt and Raf-1 (Western blot): MCF-7 lysates, L = 1/2 and H = 5 times the antiproliferative IC50
Experimental: (§14) MCF-7 cells were cultured as described above and treated with various concentrations of drug, Geldanamycin (GDA or G) in DMSO (1% DMSO final concentration), or vehicle (DMSO) for 24 hr. Cells were harvested in cold PBS and lysed in RIPA lysis buffer containing 1 mM PMSF, 2 mM sodium orthovanadate, and protease inhibitors on ice for 1 hr. Lysates were clarified at 14000 g for 10 min at 4° C. Protein concentrations were determined using the Pierce BCA protein assay kit per the manufacturer's instructions. Equal amounts of protein (15 μg) were electrophoresed under reducing conditions, transferred to a PVDF membrane, and immunoblotted with the corresponding specific antibodies. Membranes were incubated with an appropriate horseradish peroxidase-labeled secondary antibody, developed with a chemiluminescent substrate, and visualized.

[10] = test system: heat shock proteins Hsp27, Hsp70 and Hsp90; test: Western blot analyses of heat shock proteins in MCF-7 cell lysates; format: cell-based, human; conditions: MCF-7 cells, 24 h, increasing concentrations of 5f
Experimental: as §14

[11] = test system: Hsp90 C-terminus; test: Proteolytic fingerprinting assay of Hsp90 from rabbit reticulocyte lysate; format: binding; conditions: band not detected for vehicle control
Experimental: e) Proteolytic Fingerprinting Assay
Rabbit reticulocyte (Green Hectares) incubated under conditions of protein synthesis at 30° C. in the presence of compound or vehicle (1% DMSO) for 10 minutes. Each reaction mixture contained 66.6% rabbit reticulocyte and 33.3% ATP regenerating system (10 mM creatine phosphate and 20 μg mL^−1 creatine phosphokinase) and a final concentration of 75 mM KCl. Each reaction mixture contained the indicated amount of compound. After incubating, the samples were immediately placed on ice and the indicated amount of TPCK-treated trypsin (Worthington) was added to each sample. The samples digested on ice for an additional 6 minutes and the reactions were quenched by the addition of Laemmli sample buffer followed by immediate boiling. Equal amounts of each sample were electrophoresed under reducing conditions (12% acrylamide gels), transferred to PVDF, and immunoblotted with an antibody specific to the Hsp90 C-terminus. Membranes were incubated with an appropriate horseradish peroxidase-labeled secondary antibody, developed with a chemiluminescent substrate, and visualized.

[12] = Table 1 coumarin-based triazoles
[13] = Table 1 coumarin-based triazoles, 72 hr, mean ± standard deviation, read-out: IC50 MCF-7
[14] = Table 1 coumarin-based triazoles, 72 hr, mean ± standard deviation, at least two experiments in triplicate, read-out: IC50 SKBr3
[15] = Table 2 biphenyl triazole analogues
[16] = Table 2 biphenyl triazole analogues, 72 hr, mean ± standard deviation, read-out: IC50 MCF-7
[17] = read-out: IC50 against MCF-7 cell line
[18] = Table 2 biphenyl triazole analogues, 72 hr, mean ± standard deviation, read-out: IC50 SKBr3

IC50 [1, 12] [µM]	IC50 [4, 13] [µM]	IC50 [6, 12] [µM]	IC50 [7, 12] [µM]	IC50 [8, 14] [µM]	IC50 [1, 15] [µM]	IC50 [4, 16] [µM]	IC50 [4, 17] [µM]	IC50 [6, 15] [µM]	IC50 [7, 15] [µM]	IC50 [8, 18] [µM]	Compound	IC50 [2, 12] [µM]	IC50 [3, 12] [µM]	activity against all cell lines tested [5]	IC50 [2, 15] [µM]	IC50 [3, 15] [µM]	client proteins Her2, Akt, Raf-1 and CDK6 (Western blot, concentration series) ([9]; MCF-7 cells)	Hsp90 client proteins Her2, Akt and Raf-1 (Western blot) [9]	also measured
–	–	–	–	–	0.65 ± 0.54	0.5 ± 0.02	0.5	0.55 ± 0.46	0.34 ± 0.07	0.17 ± 0.02	CN1CCC(Oc2ccc(-c3ccc(NC(=O)c4cn(Cc5ccccc5)nn4)cc3)cc2)CC1 [5b, 1-Benzyl-N-(4′-((1-methylpiperidin-4-yl)oxy)-[1,1′-biphenyl]-4-yl)-1H-1,2,3-triazole-4-carboxamide]	–	–	–	0.5 ± 0.06	0.28 ± 0.1	degraded in a concentration-dependent manner	decreased; also recorded: Clear degradation	times more potent than 5a against all the cell lines evaluated ([5]; 5b compared with 5a): 2.5-8 times; IC50 ([8]; read-out: IC50 against SKBr3 cell line): 0.17 µM
–	–	–	–	–	0.2 ± 0.04	0.12 ± 0.01	0.12	0.36 ± 0.04	0.41 ± 0.26	0.17 ± 0.03	Cc1ccc(Cn2cc(C(=O)Nc3ccc(-c4ccc(OC5CCN(C)CC5)cc4)cc3)nn2)cc1 [5f, 1-(4-Methylbenzyl)-N-(4′-((1-methylpiperidin-4-yl)oxy)-[1,1′-biphenyl]-4-yl)-1H-1,2,3-triazole-4-carboxamide]	–	–	–	0.42 ± 0.07	0.36 ± 0.05	degraded in a concentration-dependent manner	decreased; also recorded: Clear degradation	concentration able to deplete Hsp90 client proteins as well as Geldanamycin at 500 nM ([9]; MCF-7 cells, Western blot): 1 µM; heat shock proteins Hsp27, Hsp70, or Hsp90 levels [10]: No increase; 50 kDa Hsp90 fragment on trypsin proteolysis (C-terminal Hsp90 antibody) ([11]; 1 mM compound): 50 kDa band was detected

The remaining lines, values behind:

Compound	IC50 [1, 12] [µM]	IC50 [4, 13] [µM]	IC50 [6, 12] [µM]	IC50 [7, 12] [µM]	IC50 [8, 14] [µM]	IC50 [1, 15] [µM]	IC50 [4, 16] [µM]	IC50 [4, 17] [µM]	IC50 [6, 15] [µM]	IC50 [7, 15] [µM]	IC50 [8, 18] [µM]	IC50 [2, 12] [µM]	IC50 [3, 12] [µM]	activity against all cell lines tested [5]	IC50 [2, 15] [µM]	IC50 [3, 15] [µM]	client proteins Her2, Akt, Raf-1 and CDK6 (Western blot, concentration series) ([9]; MCF-7 cells)	Hsp90 client proteins Her2, Akt and Raf-1 (Western blot) [9]	also measured
Cc1c(OC2CCN(C)CC2)ccc2cc(NC(=O)c3cn(-c4ccccc4)nn3)c(=O)oc12 [4a, N-(8-methyl-7-((1-methylpiperidin-4-yl)oxy)-2-oxo-2H-chromen-3-yl)-1-phenyl-1H-1,2,3-triazole-4-carboxamide]	4.72 ± 0.71	1.33 ± 0.13	2.69	1.1 ± 0.21	0.94 ± 0.02	–	–	–	–	–	–	2.3 ± 0.4	1.5 ± 3.4	low micromolar	–	–	–	–	–
Cc1c(OC2CCN(C)CC2)ccc2cc(NC(=O)c3cn(Cc4ccccc4)nn3)c(=O)oc12 [4b, 1-Benzyl-N-(8-methyl-7-((1-methylpiperidin-4-yl)oxy)-2-oxo-2H-chromen-3-yl)-1H-1,2,3-triazole-4-carboxamide]	15.5 ± 8.75	1.08	9.8 ± 13.5	2.4	0.99 ± 0.08	–	–	–	–	–	–	2.1 ± 0.23	1.6 ± 0.21	low micromolar	–	–	–	–	–
CO[C@@H]1[C@@H](OC(N)=O)[C@@H](O)[C@H](Oc2ccc3c(O)c(NC(=O)c4ccc(O)c(CC=C(C)C)c4)c(=O)oc3c2C)OC1(C)C [novobiocin, reference compound]	–	–	–	–	–	–	–	–	–	–	–	–	–	–	–	–	–	–	50 kDa Hsp90 fragment on trypsin proteolysis (C-terminal Hsp90 antibody) ([11]; 5 mM compound): 50 kDa band was detected

Source: patent US9994556B2, “Triazole modified coumarin and biphenyl amide-based HSP90 inhibitors” (THE UNIVERSITY OF KANSAS, priority 2014, dated 2018)
